From PubChem BioAssay AID1919672 come the findings set out here.

Results filed as inconclusive are left out.

The assay deals with Excitatory amino acid transporter 2 (Homo sapiens) (UniProt P43004). Put plainly: wild-type SLC1A2 aspartate uptake modulators, dose response, HEK293 overexpressing cells, iAspSnFR biosensor, flow cytometry (AID 1919672). The settings on record: HEK293 SLC1A2-OE.
Chain of Excitatory amino acid transporter 2 (Homo sapiens) (P43004 whole entry, looked up): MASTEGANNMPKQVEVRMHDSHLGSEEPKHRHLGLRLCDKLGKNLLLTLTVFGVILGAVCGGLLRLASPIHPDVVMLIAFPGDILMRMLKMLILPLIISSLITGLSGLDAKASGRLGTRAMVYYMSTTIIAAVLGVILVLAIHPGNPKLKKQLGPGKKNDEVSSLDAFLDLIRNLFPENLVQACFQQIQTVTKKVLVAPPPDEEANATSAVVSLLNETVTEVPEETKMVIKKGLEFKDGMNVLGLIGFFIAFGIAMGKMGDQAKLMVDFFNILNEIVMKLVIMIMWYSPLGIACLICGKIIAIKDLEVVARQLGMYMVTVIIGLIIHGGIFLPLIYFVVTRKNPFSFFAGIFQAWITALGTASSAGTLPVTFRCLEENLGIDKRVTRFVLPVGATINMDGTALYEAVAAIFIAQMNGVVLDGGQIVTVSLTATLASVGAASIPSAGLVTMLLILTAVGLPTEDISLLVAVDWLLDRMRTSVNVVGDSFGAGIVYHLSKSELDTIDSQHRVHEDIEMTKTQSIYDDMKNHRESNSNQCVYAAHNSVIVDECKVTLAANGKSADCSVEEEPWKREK

Regarding `N[C@@H](CC(=O)O)C(=O)O`, the EC50 is 11 µM.
